In data set [1] the test system is bone-marrow-derived macrophages (BMDMs). It is filed as cell-based. As to the method:
(§1) Bone-marrow derived macrophages. Bone-marrow derived macrophages (BMDMs) were isolated from femurs of adult VVT or Rip3^−/− mice and differentiated into macrophages using DMEM supplemented with 10% FBS and 1% penicillin-streptomycin plus either 20% L929 conditioned media or 20 ng/mL mouse M-CSF for 7-10 days. To polarize macrophages to M1 or M2, BMDMs were incubated on day 7 with 1 μg/mL LPS and 100 ng/mL IFNγ or 10 ng/mL IL-4 respectively for 24 h. Damage Associated Molecular Patterns (DAMPs) were obtained by subjecting BMDMs to 3×30 min freeze-thaw cycle or treatment with 100 ng/mL LPS and 50 μM zVAD.fmk for 24 hours, after which the media was collected and added to naïve cells at indicated ratios.
(§2) Cell viability assays. Cell death was determined by measuring lactate dehydrogenase (LDH) release into the media. Briefly, cells were treated with 100 μg/ml oxLDL in the presence or absence of 25 μM zVAD.fmk or 50 μM necrostatin-1 (Nec-1) for 24 hours and media was collected and centrifuged to pellet cell debris. The amount of LDH in media was measured in a kinetic assay by adding PBS containing 0.02% NADH and 0.03% sodium pyruvate and measuring absorbance at 340 nm for 10 minutes at 1 minute intervals. The slope of the curve provides a measure of cell death, which was expressed as fold change relative to control.
as §1, with “Rip3−/−” for “Rip3^−/−”
as §2, with “ug/ml” for “μg/ml”, “uM” for “μM”

Another data set concerns RIP3. Kind of data set: Western blot of RIP3 phosphorylation (band shift) in BMDMs. The format is cell-based, mouse. As to the method: (§3) Western blot analysis. For western blot analysis of RIP3, cells were lysed in 1.25×sample buffer (83 mM Tris pH 6.8, 6.7% SDS, 13.3% Glycerol, 1.3% β-mercaptoethanol, 0.03% bromophenol blue) and boiled at 100° C. for 5 minutes prior to being subjected to SDS-PAGE and western blot analysis as previously described (Robinson et al., 2012). PVDF membranes were blocked with 5% skim milk, followed by incubation with RIP3 (ProSci Inc, 1:500) or HSP90 (Santa Cruz Biotechnology, 1:1000) antibodies. For analysis of MLKL protein, cells were lysed in ice-cold M2 lysis buffer (50 mM NaF, 20 mM Tris, pH 7.0, 0.5% NP40, 250 mM NaCl, 3 mM EDTA, 3 mM EGTA, supplemented with Roche protease and phosphatase inhibitor cocktails) for 30 mins before centrifugation to pellet insoluble component. Samples were mixed 3:1 with 4×sample loading buffer (Bio-Rad) prior to SDS PAGE and western blot analysis. PVDF membranes were blocked in 5% BSA and probed with MLKL (Millipore, 1:500) or GAPDH (Millipore, 1:1000) antibodies. Goat anti-mouse (1:2500) or anti-rabbit (1:5000) or anti-rat (1:2500) IRDye® secondary antibodies (Rockland) were utilized. The protein bands were visualized using Odyssey Infrared Imaging System (LI-COR Biotechnology).
Western blot analysis. […]
(In general: In western blotting, separated proteins are transferred to a membrane and probed.)

A further data set has as its system MLKL. Kind of data set: Western blot of pMLKL in BMDMs. The format is cell-based, mouse. Here is the method: as §3, with “1.25× sample” for “1.25×sample”, “analysis.” for “analysis as previously described (Robinson et al., 2012).”, “4× sample” for “4×sample”, “(Bio-rad)” for “(Bio-Rad)”

With `CN1C(=O)C(Cc2c[nH]c3ccccc23)NC1=S` (stereo not shown) [Nec-1, necrostatin-1], in data set [1], the “cell death with compound alone (in words)” value is “did not promote cell death”. Further, the “cell death (LDH release), fold change relative to control” value in data set [1] (BMDMs, 100 μg/mL oxLDL + 50 μM Nec-1, 24 h, oxLDL alone 3.9±0.6-fold, mean±SEM) came out at 2.3±0.4 fold. The “inhibition of oxLDL+zVAD.fmk-induced cell death (in words)” value in data set [1] (BMDMs, oxLDL + zVAD.fmk + Nec-1, 24 h) is on record as “similarly inhibited”. For the same compound, in data set [1] (M2-polarized macrophages, oxLDL 24 h), the “inhibition of oxLDL-induced cell death (in words)” value is reported as “similarly inhibited”. For the same compound, in the data set on RIP3 (BMDMs co-incubated with oxLDL and DAMPs, 8 hours), the “RIP3 phosphorylation induced by oxLDL and DAMPs (in words)” value is given as “can be inhibited”. The “oxLDL-induced RIP3 phosphorylation (in words)” value with RIP3 (BMDMs, oxLDL±zVAD.fmk±Nec-1, 8 hours) was “dampened”. In addition, in the data set with MLKL, the “oxLDL-induced MLKL phosphorylation (in words)” value is “dampened”.
